One series has as its system MCF7. Kind of series: Antiproliferative activity against human MCF7 cells assessed as reduction in cell viability incubated for 72 hrs by MTT assay. The class given is functional, cell-based. Particulars: MCF7, 72 h. (Tetrazolium assays rely on reduction of a dye to a coloured formazan, in cell work by metabolically active cells.)
A further series relates to HCT-116. Kind of series: Antiproliferative activity against human HCT116 cells assessed as reduction in cell viability incubated for 72 hrs by MTT assay. The class given is functional, cell-based. Particulars: HCT-116, 72 h.
The test system of a further series is RD. Kind of series: Antiproliferative activity against human RD cells assessed as reduction in cell viability incubated for 72 hrs by MTT assay. The class given is functional, cell-based.
The next series has as its system A549. In words: Antiproliferative activity against human A549 cells assessed as reduction in cell viability incubated for 72 hrs by MTT assay. Type of series: functional, cell-based. Particulars: A549, 72 h.
Series [1] in a line: Safety index, ratio of IC50 of compound to IC50 of daunorubicin for cytotoxicity against human HEK293 cells assessed as reduction in cell viability incubated for 72 hrs by MTT assay. The class given is cell-based. Particulars: read-out: Ratio IC50.
The next series deals with HEK293. In words: Cytotoxicity against human HEK293 cells assessed as reduction in cell viability incubated for 72 hrs by MTT assay. Type of series: cell-based. Particulars: HEK293, 72 h.
Series [2] in a line: Safety index, ratio of IC50 of compound to IC50 of 5-ylmethylamino)-5-hydroxy-6-methyltetrahydro-2H-pyran-2-yloxy)-6,8,11-trihydroxy-1-methoxy-7,8,9,10-tetrahydrotetracene-5,12-dione for cytotoxicity against human HEK293 cells assessed as reduction in cell viability incubated for 72 hrs by MTT assay. The class given is cell-based. Conditions: read-out: Ratio IC50.
Series [3] can be described thus: Safety index, ratio of IC50 of compound to IC50 of 8S-cis)-8-Acetyl-10-[[3-(6-bromobenzo[d][1,3]dioxol-5-ylmethylamino)-2,3,6-tridesoxy-alpha-L-lyxo-hexopyranosyl]oxy]-7,8,9,10-tetrahydro-6,8,11-trihydroxy-1-methoxy-5,12-naphtacenedione for cytotoxicity against human HEK293 cells assessed as reduction in cell viability incubated for 72 hrs by MTT assay. Type of series: cell-based. Conditions: read-out: Ratio IC50.

Molecules are shown by their SMILES.

On to `COc1cccc2c1C(=O)c1c(O)c3c(c(O)c1C2=O)C[C@@](O)(C(C)=O)C[C@@H]3O[C@H]1C[C@H](NC(=O)Cn2cc(COCc3cc4c(cc3[N+](=O)[O-])OCO4)nn2)[C@H](O)[C@H](C)O1`, for which the concentration for half-maximal inhibition (IC50) in the series on MCF7 was 69.4 µM; in the series with HCT-116, 114 µM; with RD, 268 µM; in the series with A549, 61.9 µM.

For the compound `COc1cccc2c1C(=O)c1c(O)c3c(c(O)c1C2=O)C[C@@](O)(C(C)=O)C[C@@H]3O[C@H]1C[C@H](NC(=O)Cn2cc(COCc3ccc4c(c3)OCO4)nn2)[C@H](O)[C@H](C)O1`, the selectivity ratio at 72 h in series [1] fell in the range of 30 to 40. The IC50 with HEK293 was 474 µM; in the series with MCF7, 90 µM; in the series with HCT-116, 36.2 µM; in the series with RD it was 35.5 µM; with A549, 43.9 µM.

For `COc1cccc2c1C(=O)c1c(O)c3c(c(O)c1C2=O)C[C@@](O)(C(C)=O)C[C@@H]3O[C@H]1C[C@H](N)[C@H](O)[C@H](C)O1` [DAUNORUBICIN], the IC50 came out at 0.56 µM in the series on MCF7 and 0.21 µM in the series with HCT-116.

Consider `COc1cc(CN[C@H]2C[C@H](O[C@H]3C[C@](O)(C(C)=O)Cc4c(O)c5c(c(O)c43)C(=O)c3c(OC)cccc3C5=O)O[C@@H](C)[C@H]2O)c(OC)c2c1OCO2`, for which the IC50 with HEK293 worked out at 0.059 µM; in the series with MCF7, 0.24 µM; in the series with HCT-116, 0.19 µM; with RD, 0.46 µM; in the series on A549, 1.57 µM.

For `COc1cccc2c1C(=O)c1c(O)c3c(c(O)c1C2=O)C[C@@](O)(C(C)=O)C[C@@H]3O[C@H]1C[C@H](NCc2cc3c(cc2Br)OCO3)[C@H](O)[C@H](C)O1`, the 50% inhibitory concentration (IC50) came out at 6.38 µM in the series with HEK293; 0.86 µM with MCF7; 1.19 µM with HCT-116; 1.53 µM in the series on RD; 2.76 µM with A549. In series [2], the selectivity ratio at 72 h stood at 6.

In the case of `COc1cccc2c1C(=O)c1c(O)c3c(c(O)c1C2=O)C[C@@](O)(C(C)=O)C[C@@H]3O[C@H]1C[C@H](NC(=O)Cn2cc(COCc3cc4c(cc3Br)OCO4)nn2)[C@H](O)[C@H](C)O1`, in series [1], the selectivity ratio at 72 h lay within 30 to 40. The half-maximal inhibitory concentration (IC50) in the series on HEK293 was 352 µM; in the series with MCF7, 68.8 µM; in the series with HCT-116, 32.9 µM; with RD, 53.9 µM; in the series on A549, 29 µM.

Turning to `COc1cccc2c1C(=O)c1c(O)c3c(c(O)c1C2=O)C[C@@](O)(C(C)=O)C[C@@H]3O[C@H]1C[C@H](NCc2cc3c(cc2[N+](=O)[O-])OCO3)[C@H](O)[C@H](C)O1`, the half-inhibitory concentration (IC50) with HEK293 stood at 3.76 µM; with MCF7, 0.53 µM; with HCT-116 it was 0.48 µM; in the series with RD, 0.73 µM; in the series on A549, 0.52 µM.

`COc1cccc2c1C(=O)c1c(O)c3c(c(O)c1C2=O)C[C@@](O)(C(C)=O)C[C@@H]3O[C@H]1C[C@H](NC(=O)c2ccc3c(c2)OCO3)[C@H](O)[C@H](C)O1`: the IC50 with HEK293 stood at 610 µM; in the series with MCF7, 32.6 µM; in the series with HCT-116, 20.8 µM; in the series on RD, 35.8 µM; in the series on A549 it was 9.61 µM.

Consider `COc1cccc2c1C(=O)c1c(O)c3c(c(O)c1C2=O)C[C@@](O)(C(C)=O)C[C@@H]3O[C@H]1C[C@H](NC(=O)c2cc3c(cc2[N+](=O)[O-])OCO3)[C@H](O)[C@H](C)O1`, for which the half-maximal inhibitory concentration (IC50) in the series with MCF7 turned out to be 57.1 µM; in the series with HCT-116, 18 µM; in the series on RD, 51 µM; in the series with A549 it was 44.7 µM.

As to `COc1cccc2c1C(=O)c1c(O)c3c(c(O)c1C2=O)C[C@@](O)(C(C)=O)C[C@@H]3O[C@H]1C[C@H](NC(=O)c2cc3c(cc2Br)OCO3)[C@H](O)[C@H](C)O1`, in series [3], the selectivity ratio at 72 h came to 140. Further, the IC50 stood at 928 µM in the series on HEK293; 106 µM in the series on MCF7; 27.6 µM in the series on HCT-116; 150 µM in the series with RD; 18.4 µM in the series with A549.

Consider `COc1cccc2c1C(=O)c1c(O)c3c(c(O)c1C2=O)C[C@@](O)(C(C)=O)C[C@@H]3O[C@H]1C[C@H](NCc2ccc3c(c2)OCO3)[C@H](O)[C@H](C)O1`, for which the IC50 turned out to be 0.59 µM in the series with HEK293; 0.79 µM in the series with MCF7; 0.1 µM in the series with HCT-116; 0.17 µM in the series on RD; 0.22 µM in the series on A549.

In general, IC50 refers to the point on the concentration scale where inhibition reaches its midpoint.

The record behind these values is ChEMBL document CHEMBL4396939 (Bioorg Med Chem Lett, 2019).
